Numbered stars: 1 amine (or outer) side, 2 acyl side, 3 side chain; on linkers, the order of the positions; unused ones are H or OH. Square brackets hold non-standard residues; d marks the D form. Side chains are listed from the residue outwards. Ends that are not written are not given here. Peptide text beside a SMILES is read from it. γGlu = O=C(O)[C@H](CCC(=O)[*:2])N[*:1]; C16 acyl = 16 carbon fatty acyl group; Aib = CC(C)(N)C(=O)O
Key:
solubility at pH 6-8 = format: physicochemical
glucagon receptor [1] = biological target: T1, glucagon receptor (Homo sapiens, UniProt P47871); test: cell-based; settings: Table J
Description: (§1) HEK293 cells co-transfected with the receptor and luciferase gene linked to a cAMP responsive element were employed for the bioassay.
(§2) All EC50s and IC50s are reported in the following examples in nM, unless indicated otherwise.

glucagon receptor [2] = biological target: T1, glucagon receptor; test: cAMP induction at the glucagon receptor (agonist activity), luciferase reporter assay in HEK293 cells; format: cell-based; design: expressed in transfected cells; host or cells: HEK293
Description: as §1, §2

GLP-1 receptor = biological target: T2, GLP-1 receptor (Homo sapiens, UniProt P43220); test: cAMP induction at the GLP-1 receptor (agonist activity), firefly luciferase reporter assay in HEK293 cells; format: cell-based
T2 construct: expressed in transfected cells; host or cells: HEK293
Description: as §1, §2

GIP receptor = biological target: T3, GIP receptor (Homo sapiens, UniProt P48546); test: cAMP induction at the GIP receptor (agonist activity), luciferase reporter assay in HEK293 cells; format: cell-based
T3 construct: expressed in transfected cells; host or cells: HEK293
T3 sequence (P48546 22-466): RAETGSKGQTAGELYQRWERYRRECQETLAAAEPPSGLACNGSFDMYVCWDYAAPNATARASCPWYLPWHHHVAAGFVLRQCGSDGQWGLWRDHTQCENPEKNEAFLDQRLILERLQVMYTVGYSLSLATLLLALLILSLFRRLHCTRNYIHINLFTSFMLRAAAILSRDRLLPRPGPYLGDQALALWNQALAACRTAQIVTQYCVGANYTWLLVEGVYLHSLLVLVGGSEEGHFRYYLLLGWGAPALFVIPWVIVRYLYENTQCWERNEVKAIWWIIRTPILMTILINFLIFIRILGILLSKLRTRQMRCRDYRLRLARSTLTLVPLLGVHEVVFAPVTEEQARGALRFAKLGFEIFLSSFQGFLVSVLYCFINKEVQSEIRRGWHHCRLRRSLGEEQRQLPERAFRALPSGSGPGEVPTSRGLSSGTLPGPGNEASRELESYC
Description: as §1, §2

[3] = format: in vivo, C57Bl/6 mice; settings: 30 nmol/kg subcutaneously daily for one week
glucagon receptor [4] = biological target: T1, glucagon receptor; test: glucagon receptor binding; design: expressed in transfected cells; host or cells: HEK293; settings: read-out: IC50(nM) (Receptor binding)
[5] = Example 8: acylated peptides injected subcutaneously daily for one week into DIO mice; format: in vivo, DIO mice (C57Bl/6 WT); settings: 10 nmol/kg subcutaneously daily for one week
Description: Different doses of acylated peptides comprising a Lys at position 16 and an AIB at position 20 were tested in vivo. […] The mice had been on a high fat diet diet for ˜8 months. Body weight and food intake were measured on days 0, 1, 3, 5, and 7, whereas blood glucose levels were measured on Days 0 and 7 of the experiment. Each test group and control group consisted of 8 mice.

[6] = IC50(nM) (cAMP, inhibit Glucagon) 0.1 nM, inhibit 0.1 nM glucagon
[7] = Table 7, relative to the native ligand of the receptor

T1 sequence (P47871 26-477): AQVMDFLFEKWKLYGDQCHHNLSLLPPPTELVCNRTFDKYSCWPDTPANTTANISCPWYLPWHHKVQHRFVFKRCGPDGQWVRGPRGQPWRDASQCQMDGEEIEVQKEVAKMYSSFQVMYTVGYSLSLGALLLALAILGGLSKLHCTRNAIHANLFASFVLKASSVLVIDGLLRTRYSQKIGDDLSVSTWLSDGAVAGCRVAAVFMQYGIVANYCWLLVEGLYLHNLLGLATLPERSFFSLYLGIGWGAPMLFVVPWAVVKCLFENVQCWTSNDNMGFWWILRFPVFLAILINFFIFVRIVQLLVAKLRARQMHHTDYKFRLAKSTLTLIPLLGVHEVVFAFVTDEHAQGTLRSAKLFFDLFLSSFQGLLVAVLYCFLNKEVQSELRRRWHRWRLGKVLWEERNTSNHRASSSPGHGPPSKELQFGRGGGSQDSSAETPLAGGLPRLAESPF
T2 sequence (P43220 24-463): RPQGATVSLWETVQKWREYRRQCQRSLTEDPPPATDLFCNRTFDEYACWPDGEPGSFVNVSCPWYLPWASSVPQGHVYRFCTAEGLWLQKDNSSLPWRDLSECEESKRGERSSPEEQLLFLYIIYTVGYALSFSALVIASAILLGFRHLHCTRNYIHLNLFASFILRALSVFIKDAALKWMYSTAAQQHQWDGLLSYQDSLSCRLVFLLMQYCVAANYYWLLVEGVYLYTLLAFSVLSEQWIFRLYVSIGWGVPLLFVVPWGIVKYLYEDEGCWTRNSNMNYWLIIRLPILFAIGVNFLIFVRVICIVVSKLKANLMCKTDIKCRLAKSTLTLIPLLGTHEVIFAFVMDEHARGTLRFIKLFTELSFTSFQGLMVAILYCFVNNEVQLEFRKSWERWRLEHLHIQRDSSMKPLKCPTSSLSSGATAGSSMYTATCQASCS

Compound	Solubility (%, pH 6-8) (solubility at pH 6-8)	IC50 (glucagon receptor [1]; [6])	IC50 (glucagon receptor [4]; Table J)	also measured
CSCC[C@H](NC(=O)[C@H](CC(C)C)NC(=O)[C@H](Cc1c[nH]c2ccccc12)NC(=O)[C@H](CCC(N)=O)NC(=O)[C@@H](NC(=O)[C@H](Cc1ccccc1)NC(=O)[C@H](CC(=O)O)NC(=O)[C@H](CCC(N)=O)NC(=O)[C@H](C)NC(=O)[C@H](CCCNC(=N)N)NC(=O)[C@H](CCCNC(=N)N)NC(=O)[C@H](CO)NC(=O)[C@H](CC(=O)O)NC(=O)[C@H](CC(C)C)NC(=O)[C@H](Cc1ccc(O)cc1)NC(=O)[C@H](CCCCN)NC(=O)[C@H](CO)NC(=O)[C@H](Cc1ccc(O)cc1)NC(=O)[C@H](CC(=O)O)NC(=O)[C@H](CO)NC(=O)[C@@H](NC(=O)[C@@H](O)Cc1ccccc1)[C@@H](C)O)C(C)C)C(=O)N[C@@H](CC(N)=O)C(=O)N[C@H](C(=O)O)[C@@H](C)O [[PLA6, D9]Glucagon(aa6-29)-COOH] (HELM PEPTIDE1{[O=C([C@@H](O)Cc1ccccc1)[*:2]].T.S.D.Y.S.K.Y.L.D.S.R.R.A.Q.D.F.V.Q.W.L.M.N.T}$$$$V2.0)	96%	13.2 nM		
Y1Aib2I12K16Q17A18Aib20E21N24-LAG27-29-CEX-K (YXQGTFTSDYSIYLDKQAAXEFVNWLLAGGPSSGAPPPSK; HELM PEPTIDE1{Y.[Aib].Q.G.T.F.T.S.D.Y.S.I.Y.L.D.K.Q.A.A.[Aib].E.F.V.N.W.L.L.A.G.G.P.S.S.G.A.P.P.P.S.K.[am]}$$$$V2.0; N-terminus assumed; SMILES CC[C@H](C)[C@H](NC(=O)[C@H](CO)NC(=O)[C@H](Cc1ccc(O)cc1)NC(=O)[C@H](CC(=O)O)NC(=O)[C@H](CO)NC(=O)[C@@H](NC(=O)[C@H](Cc1ccccc1)NC(=O)[C@@H](NC(=O)CNC(=O)[C@H](CCC(N)=O)NC(=O)C(C)(C)NC(=O)[C@@H](N)Cc1ccc(O)cc1)[C@@H](C)O)[C@@H](C)O)C(=O)N[C@@H](Cc1ccc(O)cc1)C(=O)N[C@@H](CC(C)C)C(=O)N[C@@H](CC(=O)O)C(=O)N[C@@H](CCCCN)C(=O)N[C@@H](CCC(N)=O)C(=O)N[C@@H](C)C(=O)N[C@@H](C)C(=O)NC(C)(C)C(=O)N[C@@H](CCC(=O)O)C(=O)N[C@@H](Cc1ccccc1)C(=O)N[C@H](C(=O)N[C@@H](CC(N)=O)C(=O)N[C@@H](Cc1c[nH]c2ccccc12)C(=O)N[C@@H](CC(C)C)C(=O)N[C@@H](CC(C)C)C(=O)N[C@@H](C)C(=O)NCC(=O)NCC(=O)N1CCC[C@H]1C(=O)N[C@@H](CO)C(=O)N[C@@H](CO)C(=O)NCC(=O)N[C@@H](C)C(=O)N1CCC[C@H]1C(=O)N1CCC[C@H]1C(=O)N1CCC[C@H]1C(=O)N[C@@H](CO)C(=O)N[C@@H](CCCCN)C(N)=O)C(C)C) [MT-280]				% Relative Activity at GR (glucagon receptor [2]; Table 8): 60%; % Relative Activity GLP-1R (GLP-1 receptor; Table 8): 225%; % Relative Activity at GIPR (GIP receptor; Table 8): 154%; change in blood glucose levels over the course of the 7-day study [3]: significant decrease in blood glucose levels
CSCC[C@H](NC(=O)[C@H](CC(C)C)NC(=O)[C@H](Cc1c[nH]c2ccccc12)NC(=O)[C@H](CCC(N)=O)NC(=O)[C@@H](NC(=O)[C@H](Cc1ccccc1)NC(=O)[C@H](CC(=O)O)NC(=O)[C@H](CCC(N)=O)NC(=O)[C@H](C)NC(=O)[C@H](CCCNC(=N)N)NC(=O)[C@H](CCCNC(=N)N)NC(=O)[C@H](CO)NC(=O)[C@H](CC(=O)O)NC(=O)[C@H](CC(C)C)NC(=O)[C@H](Cc1ccc(O)cc1)NC(=O)[C@H](CCCCN)NC(=O)[C@H](CO)NC(=O)[C@H](Cc1ccc(O)cc1)NC(=O)[C@H](CC(=O)O)NC(=O)[C@H](CO)NC(=O)[C@@H](NC(=O)[C@@H](O)Cc1ccccc1)[C@@H](C)O)C(C)C)C(=O)N[C@@H](CC(N)=O)C(=O)N[C@H](C(N)=O)[C@@H](C)O [[PLA6, D9]Glucagon(aa6-29)-NH2] (HELM PEPTIDE1{[O=C([C@@H](O)Cc1ccccc1)[*:2]].T.S.D.Y.S.K.Y.L.D.S.R.R.A.Q.D.F.V.Q.W.L.M.N.T.[am]}$$$$V2.0)	11%		13.9 ± 3.22 nM	
CSCC[C@H](NC(=O)[C@H](CC(C)C)NC(=O)[C@H](Cc1c[nH]c2ccccc12)NC(=O)[C@H](CCC(N)=O)NC(=O)[C@@H](NC(=O)[C@H](Cc1ccccc1)NC(=O)[C@H](CC(=O)O)NC(=O)[C@H](CCC(N)=O)NC(=O)[C@H](C)NC(=O)[C@H](CCCNC(=N)N)NC(=O)[C@H](CCCNC(=N)N)NC(=O)[C@H](CO)NC(=O)[C@H](CC(=O)O)NC(=O)[C@H](CC(C)C)NC(=O)[C@H](Cc1ccc(O)cc1)NC(=O)[C@H](CCCCN)NC(=O)[C@H](CO)NC(=O)[C@H](Cc1ccc(O)cc1)NC(=O)[C@H](CCC(=O)O)NC(=O)[C@H](CO)NC(=O)[C@@H](NC(=O)[C@@H](O)Cc1ccccc1)[C@@H](C)O)C(C)C)C(=O)N[C@@H](CC(N)=O)C(=O)N[C@H](C(N)=O)[C@@H](C)O [[PLA6, E9]Glucagon(aa6-29)-NH2] (HELM PEPTIDE1{[O=C([C@@H](O)Cc1ccccc1)[*:2]].T.S.E.Y.S.K.Y.L.D.S.R.R.A.Q.D.F.V.Q.W.L.M.N.T.[am]}$$$$V2.0)	11%	2.39 nM	12.3 ± 2.24 nM	IC50 (glucagon receptor [4]; Table K): 12.3 ± 0.13 nM; IC50 (glucagon receptor [1]; IC50(nM) (cAMP, inhibit Glucagon) 0.2 nM, inhibit 0.2 nM glucagon): 42.4 nM
CSCC[C@H](NC(=O)[C@H](CC(C)C)NC(=O)[C@H](Cc1c[nH]c2ccccc12)NC(=O)[C@H](CCC(N)=O)NC(=O)[C@@H](NC(=O)[C@H](Cc1ccccc1)NC(=O)[C@H](CC(=O)O)NC(=O)[C@H](CCC(N)=O)NC(=O)[C@H](C)NC(=O)[C@H](CCCNC(=N)N)NC(=O)[C@H](CCCNC(=N)N)NC(=O)[C@H](CO)NC(=O)[C@H](CC(=O)O)NC(=O)[C@H](CC(C)C)NC(=O)[C@H](Cc1ccc(O)cc1)NC(=O)[C@H](CCCCN)NC(=O)[C@H](CO)NC(=O)[C@H](Cc1ccc(O)cc1)NC(=O)[C@H](CCC(=O)O)NC(=O)[C@H](CO)NC(=O)[C@@H](NC(=O)[C@@H](O)Cc1ccccc1)[C@@H](C)O)C(C)C)C(=O)N[C@@H](CC(N)=O)C(=O)N[C@H](C(=O)NCC(=O)N1CCC[C@H]1C(=O)N[C@@H](CO)C(=O)N[C@@H](CO)C(=O)NCC(=O)N[C@@H](C)C(=O)N1CCC[C@H]1C(=O)N1CCC[C@H]1C(=O)N1CCC[C@H]1C(=O)N[C@@H](CO)C(N)=O)[C@@H](C)O [[PLA6, E9]Glucagon (aa6-29 + CEX)-NH2] (HELM PEPTIDE1{[O=C([C@@H](O)Cc1ccccc1)[*:2]].T.S.E.Y.S.K.Y.L.D.S.R.R.A.Q.D.F.V.Q.W.L.M.N.T.G.P.S.S.G.A.P.P.P.S.[am]}$$$$V2.0)	16%	24.8 nM	40.3 ± 11.3 nM	
Q3I7K16AIB20K10(rErE-C16) (Y[Aib]QGTFISDK([γGlu-γGlu-C16 acyl])SIYLDKQAA[Aib]EFVNWLLAGGPSSGAPPPS-NH2) [MT-385]				% Relative Activity at GR (glucagon receptor [2]; [7]): 239%; % Relative Activity GLP-1R (GLP-1 receptor; [7]): 3%; total change in body weight (%) [5]: lower change in body weight; % Relative Activity at GIPR (GIP receptor; [7]): 715%
